This passage reports IC50 results from patent US11253525B2, “Inhibitors of indoleamine 2,3-dioxygenase and methods of their use” (BRISTOL-MYERS SQUIBB COMPANY, priority 2018, dated 2022).

In one assay the target is T1, indoleamine 2,3-dioxygenase (IDO) (Homo sapiens, UniProt P14902).
T1 construct: replaced with media containing IFNγ (#285-IF/CF, R&D Systems) at a final concentration of 25 ng/mL; endogenous in cells; host or cells: HeLa (ATCC CCL-2), IFN-gamma stimulated
T1 sequence (P14902 whole entry): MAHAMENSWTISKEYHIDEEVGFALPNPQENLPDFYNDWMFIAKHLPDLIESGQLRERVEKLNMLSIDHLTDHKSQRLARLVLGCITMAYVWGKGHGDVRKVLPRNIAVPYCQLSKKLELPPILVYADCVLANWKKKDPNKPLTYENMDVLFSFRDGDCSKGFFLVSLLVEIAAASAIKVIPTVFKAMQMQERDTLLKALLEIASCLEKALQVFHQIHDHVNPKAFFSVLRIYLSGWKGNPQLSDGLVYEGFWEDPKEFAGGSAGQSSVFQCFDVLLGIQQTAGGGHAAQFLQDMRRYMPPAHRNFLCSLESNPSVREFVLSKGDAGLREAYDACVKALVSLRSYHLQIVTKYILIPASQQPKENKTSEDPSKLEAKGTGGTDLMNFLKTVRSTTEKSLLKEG
The experiment in a line: HeLa cell-based indoleamine 2,3-dioxygenase (IDO) assay, kynurenine production. The note with it: HeLa cells, IFNγ 25 ng/mL, 48 hour incubation; read-out: IDO Hela IC50. Here is the method: Assessment of Inhibitor Activity in HeLa Cell-Based Indoleamine 23-Dioxygenase (IDO) Assay
Cells were maintained in a humidified incubator at 37° C. in 5% CO2.
IDO activity was assessed as a function of kynurenine production as follows: HeLa cells were seeded in a 96-well culture plate at a density of 5,000 cells/well and allowed to equilibrate overnight. […] A serial dilution of each test compound was added to the cells in a total volume of 200 μL of culture medium. After a further 48 hour incubation, 170 μL of supernatant was transferred from each well to a fresh 96-well plate. 12.1 μL of 6.1N trichloroacetic acid (#T0699, Sigma-Aldrich) was added to each well and mixed, followed by incubation at 65° C. for 20 minutes to hydrolyze N-formylkynurenine, the product of indoleamine 2,3-dioxygenase, to kynurenine. The reaction mixture was then centrifuged for 10 mins at 500×g to sediment the precipitate. 100 μL of the supernatant was transferred from each well to a fresh 96-well plate. […] Kynurenine concentrations were determined by measuring absorbance at 480 nm and calibrating against an L-kynurenine (#K8625, Sigma-Aldrich) standard curve using a SPECTRAMAX® M2e microplate reader (Molecular Devices). The percentage activity at each inhibitor concentration was determined and IC50 values assessed using nonlinear regression.
For orientation: IC50 means the midpoint of a concentration-inhibition curve. Consider `CCO[C@H](c1ccc([C@@H](COC)CC(=O)O)cc1NC(=O)Nc1ccc(Cl)cc1F)C(F)(F)F` (single isomer, unassigned) [Example 61], for which the IC50 is 0.19 µM.

Take `CC[C@H](CC(=O)O)c1ccc([C@@H](CC)N2CCOCC2)c(Nc2ccc(COC)nc2)c1` (relative stereo) [Example 121, (R)-3-(3-((6-(methoxymethyl)pyridin-3-yl)amino)-4-((R)-1-morpholinopropyl)phenyl)pentanoic acid]: the IC50 came to 0.03 µM.

In the case of `CC[C@@H](CC(=O)O)c1ccc([C@@H](OC)C(F)(F)F)c(Nc2cnc(C)nc2)c1` (single isomer, unassigned) [Example 86], the IC50 turned out to be 0.45 µM.

As to `CCO[C@H](c1ccc([C@H](COC)CC(=O)O)cc1Nc1ccc(C#N)cc1)C(F)(F)F` (relative stereo) [Example 57, (R)-3-(3-((4-cyanophenyl)amino)-4-((R)-1-ethoxy-2,2,2-trifluoroethyl)phenyl)-4-methoxybutanoic acid], the half-maximal inhibitory concentration (IC50) amounted to 0.01 µM.

In the case of `CCO[C@@H](c1ccc([C@H](COC)CC(=O)O)cc1Nc1ccc(C#N)cc1)C(F)(F)F` (relative stereo) [Example 73, (R)-3-(3-((4-cyanophenyl)amino)-4-((S)-1-ethoxy-2,2,2-trifluoroethyl)phenyl)-4-methoxybutanoic acid], the IC50 amounted to 0.01 µM.

Take `CCO[C@@H](c1ccc([C@H](CC)CC(=O)O)cc1Nc1cnc(OC)nc1)C(F)(F)F` (single isomer, unassigned) [Example 33]: the IC50 is 0.03 µM.

Take `CCO[C@H](c1ccc([C@@H](COC)CC(=O)O)cc1Nc1ccc(C#N)cc1)C(F)(F)F` (single isomer, unassigned) [Example 65]: the IC50 worked out at 0.01 µM.

As for `CCc1ncc(Nc2cc([C@@H](COC)CC(=O)O)ccc2[C@H](CC)N2CCOCC2)cn1` (relative stereo) [Example 102, (S)-3-(3-((2-ethylpyrimidin-5-yl)amino)-4-((S)-1-morpholinopropyl)phenyl)-4-methoxybutanoic acid], the IC50 worked out at 0.89 µM.

Regarding `CCOc1ncc(Nc2cc([C@@H](CC)CC(=O)O)ccc2[C@H](CC)N2CCOCC2)cn1` (single isomer, unassigned) [Example 118-1], the IC50 turned out to be 0.75 µM.

As to `CCOC(c1ccc(C(COC)CC(=O)O)cc1NC(=O)Nc1ccc(C)cc1)C(F)(F)F` (single isomer, unassigned) [Example 52], the IC50 worked out at 0.23 µM.

Regarding `CC[C@H](CC(=O)O)c1ccc([C@@H](CC)C2CCOCC2)c(Nc2ccc(COC)nc2)c1` (single isomer, unassigned) [Example 129], the IC50 is 0.31 µM.

With `CC[C@H](CC(=O)O)c1ccc([C@@H](CC)N2CCOCC2)c(Nc2cnc(C)nc2)c1` (relative stereo) [Example 120, (R)-3-(3-((2-methylpyrimidin-5-yl)amino)-4-((R)-1-morpholinopropyl)phenyl)pentanoic acid], the IC50 was found to be 0.08 µM.

Regarding `CCO[C@@H](c1ccc([C@H](CC)CC(=O)O)cc1Nc1cnc(OC)cn1)C(F)(F)F` (relative stereo) [Example 36, (R)-3-(4-((S)-1-ethoxy-2,2,2-trifluoroethyl)-3-((5-methoxypyrazin-2-yl)amino)phenyl)pentanoic acid], the IC50 was 0.03 µM.

Take `CCO[C@H](c1ccc([C@@H](CC)CC(=O)O)cc1NC(=O)Nc1ccc(C)cc1)C(F)(F)F` (single isomer, unassigned) [Example 19]: the IC50 is 0.58 µM.

With `CCO[C@H](c1ccc([C@@H](COC)CC(=O)O)cc1Nc1cnc(C)nc1)C(F)(F)F` (single isomer, unassigned) [Example 67], the IC50 was 0.41 µM.

On to `CCO[C@@H](c1ccc([C@H](CC)CC(=O)O)cc1Nc1cnc(CC)nc1)C(F)(F)F` (single isomer, unassigned) [Example 40], for which the 50% inhibitory concentration (IC50) was determined as 0.02 µM.

As for `CCO[C@H](c1ccc([C@H](CC)CC(=O)O)cc1NC(=O)Nc1ccc(Cl)cc1F)C(F)(F)F` (single isomer, unassigned) [Example 9], the IC50 is 0.01 µM.

`CC[C@@H](CC(=O)O)c1ccc([C@H](OC)C(F)(F)F)c(Nc2cnc(C(F)(F)F)nc2)c1` (single isomer, unassigned) [Example 100]: the IC50 amounted to 0.01 µM.

Turning to `CCO[C@@H](c1ccc([C@H](COC)CC(=O)O)cc1Nc1cnc(OC)nc1)C(F)(F)F` (single isomer, unassigned) [Example 69], the IC50 came to 0.62 µM.

For the compound `CC[C@@H](c1ccc([C@@H](COC)CC(=O)O)cc1Nc1ccc(F)cc1)N1CCOCC1` (single isomer, unassigned) [Example 106], the IC50 was determined as 0.01 µM.

As to `CCO[C@H](c1ccc([C@H](COC)CC(=O)O)cc1Nc1ccc(C#N)c(F)c1)C(F)(F)F` (single isomer, unassigned) [Example 55], the IC50 was determined as 0.01 µM.

Regarding `CC[C@@H](CC(=O)O)c1ccc([C@@H](OC)C(F)(F)F)c(Nc2cnc(C(F)(F)F)nc2)c1` (single isomer, unassigned) [Example 88], the IC50 is 0.01 µM.

Regarding `CCO[C@H](c1ccc([C@H](CC)CC(=O)O)cc1Nc1cnc(OC)cn1)C(F)(F)F` (single isomer, unassigned) [Example 14], the half-maximal inhibitory concentration (IC50) came out at 0.01 µM.

As to `CC[C@@H](CC(=O)O)c1ccc([C@@H](CC)N2CCOCC2)c(Nc2ccc(Cl)cc2)c1` (single isomer, unassigned) [Example 132], the IC50 amounted to 0.07 µM.

Turning to `CCO[C@H](c1ccc([C@@H](CC)CC(=O)O)cc1Nc1cnc(COC)nc1)C(F)(F)F` (single isomer, unassigned) [Example 27], the half-maximal inhibitory concentration (IC50) is 0.09 µM.

Still in this assay, the particulars now being: HeLa cells, IFNγ 25 ng/mL, 48 hour incubation; read-out: IDO Hela IC50 class (A < 50, B < 250, C < 2000).
With `CC[C@H](CC(=O)O)c1ccc([C@H](OC)C(F)(F)F)c(Nc2ccc(C#N)cc2)c1` (single isomer, unassigned) [Example 93], the IC50 is under 0.05 µM.

With `CC[C@@H](CC(=O)O)c1ccc([C@@H](OC)C(F)(F)F)c(Nc2ccc(Cl)cc2)c1` (single isomer, unassigned) [Example 83-1], the IC50 was under 0.05 µM.

Consider `CCO[C@@H](c1ccc([C@H](COC)CC(=O)O)cc1Nc1ncc(F)cn1)C(F)(F)F` (single isomer, unassigned) [Example 71], for which the IC50 was 0.25 to 2 µM.

For the compound `CCc1ncc(Nc2cc([C@H](CC)CC(=O)O)ccc2[C@@H](CC)C2CCOCC2)cn1` (single isomer, unassigned) [Example 126-1], the IC50 is under 0.05 µM.

Consider `CCO[C@H](c1ccc([C@H](COC)CC(=O)O)cc1Nc1ncc(F)cn1)C(F)(F)F` (single isomer, unassigned) [Example 56], for which the IC50 lay in the range of 0.25 to 2 µM.

Take `CC[C@H](CC(=O)O)c1ccc([C@@H](CC)C2CCOCC2)c(Nc2ccc(COC)nc2)c1` (single isomer, unassigned) [Example 129]: the IC50 fell in the range of 0.05 to 0.25 µM.

`CC[C@@H](CC(=O)O)c1ccc([C@@H](OC)C(F)(F)F)c(Nc2ccc(C#N)cc2)c1` (single isomer, unassigned) [Example 85]: the IC50 was under 0.05 µM.

Regarding `CC[C@H](c1ccc([C@@H](COC)CC(=O)O)cc1Nc1ccc(COC)nc1)N1CCOCC1` (relative stereo) [Example 109, (S)-4-methoxy-3-(3-((6-(methoxymethyl)pyridin-3-yl)amino)-4-((R)-1-morpholinopropyl)phenyl)butanoic acid], the IC50 lay within 0.25 to 2 µM.

`CCO[C@@H](c1ccc([C@H](CC)CC(=O)O)cc1NC(=O)Nc1ccc(Cl)cc1F)C(F)(F)F` (single isomer, unassigned) [Example 32]: the IC50 is under 0.05 µM.

For `CCOc1ncc(Nc2cc([C@@H](COC)CC(=O)O)ccc2[C@@H](CC)N2CCOCC2)cn1` (single isomer, unassigned) [Example 108], the IC50 was in the range of 0.25 to 2 µM.

“(S)-3-(4-((S)-1-ethoxy-2,2,2-trifluoroethyl)-3-((4-fluorophenyl)amino)phenyl)pentanoic acid [Example 48]”: the half-maximal inhibitory concentration (IC50) is under 0.05 µM.

For `CCO[C@H](c1ccc([C@@H](CC)CC(=O)O)cc1Nc1cnc(C)nc1)C(F)(F)F` (single isomer, unassigned) [Example 28], the IC50 was under 0.05 µM.

Consider `CCO[C@@H](c1ccc([C@@H](COC)CC(=O)O)cc1Nc1ccc(C#N)cc1)C(F)(F)F` (single isomer, unassigned) [Example 80], for which the IC50 is under 0.05 µM.

As for `CCc1ncc(Nc2cc([C@@H](COC)CC(=O)O)ccc2[C@@H](CC)N2CCOCC2)cn1` (relative stereo) [Example 107, (S)-3-(3-((2-ethylpyrimidin-5-yl)amino)-4-((R)-1-morpholinopropyl)phenyl)-4-methoxybutanoic acid], the IC50 was in the range of 0.25 to 2 µM.

`CCO[C@H](c1ccc([C@@H](COC)CC(=O)O)cc1Nc1ccc(Cl)cc1)C(F)(F)F` (single isomer, unassigned) [Example 66]: the IC50 is under 0.05 µM.

As to `CC[C@@H](CC(=O)O)c1ccc([C@H](OC)C(F)(F)F)c(Nc2ccc(C#N)cc2)c1` (single isomer, unassigned) [Example 97], the IC50 was under 0.05 µM.

In the case of `CCO[C@H](c1ccc([C@@H](COC)CC(=O)O)cc1Nc1ncc(F)cn1)C(F)(F)F` (relative stereo) [Example 64, (S)-3-(4-((R)-1-ethoxy-2,2,2-trifluoroethyl)-3-((5-fluoropyrimidin-2-yl)amino)phenyl)-4-methoxybutanoic acid], the IC50 was 0.25 to 2 µM.
